This note sets out measurements from patent US8796245B2 (TetraPhase Pharmaceuticals, Inc., priority 2008, dated 2014).

What all share (format): cell-based
The subject of assay [1] is S. aureus ATCC 29213 (SA101, MSSA). Briefly: Minimum inhibitory concentration assay, SA101. Conditions: Staphylococcus aureus; S. aureus ATCC 29213, MSSA control; read-out: MICs SA101. In outline: (§1)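 Inoculum of 0.5 McFarland was diluted 1:125 in Mueller Hinton Broth. Streptococcus media were blood-supplemented. Plates with serial compound dilutions were incubated overnight at 37° C, and MIC was recorded as the lowest inhibitory concentration.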

In assay [2] the test system is S. aureus ATCC 13709 (SA100, MSSA, Smith strain). The assay can be described thus: Minimum inhibitory concentration assay, SA100. The settings on record: Staphylococcus aureus; S. aureus ATCC 13709, MSSA Smith strain; read-out: MICs SA100. In outline:
as §1

In assay [3] the test system is S. aureus SA161 (tet resistant: tet(M) ribosomal protection). Briefly: Minimum inhibitory concentration assay, SA161. Conditions: Staphylococcus aureus, read-out: MICs SA161. In outline:
as §1

Assay [4] concerns E. coli EC155 (tet resistant: tetA efflux). The assay can be described thus: microbe, parasite or virus in culture. Conditions: Escherichia coli; E. coli tet resistant: tetA (efflux); read-out: MICs EC155. In outline:
as §1

Assay [5] relates to K. pneumoniae KP153 (tet resistant: tetA efflux). Briefly: microbe, parasite or virus in culture. Conditions: Klebsiella pneumoniae, read-out: MICs KP153. In outline: as §1
Assay [6] deals with S. aureus SA158 (tet resistant: tetK efflux). The assay can be described thus: microbe, parasite or virus in culture. The settings on record: Staphylococcus aureus, read-out: MICs SA158. An outline of the steps:
as §1

Assay [7] relates to E. faecalis ATCC 29212 (EF103). Briefly: Minimum inhibitory concentration assay, EF103. Conditions: Enterococcus faecalis, ATCC29212, read-out: MICs EF103. In outline:
as §1

Assay [8] relates to E. faecalis EF159 (tet resistant: tetM). Briefly: Minimum inhibitory concentration assay, EF159. Conditions: Enterococcus faecalis, read-out: MICs EF159. In outline: as §1
The test system of assay [9] is S. pneumoniae ATCC 49619 (SP106). Briefly: Minimum inhibitory concentration assay, SP106. The settings on record: Streptococcus pneumoniae, ATCC49619; S. pneumoniae ATCC 49619, wt; read-out: MICs SP106. In outline:
as §1

Assay [10] relates to S. pneumoniae SP160 (tet resistant: tet M). Briefly: Minimum inhibitory concentration assay, SP160. Conditions: Streptococcus pneumoniae, read-out: MICs SP160. An outline of the steps: as §1
Assay [11] has as its system E. coli ATCC 25922 (EC107). The assay can be described thus: Minimum inhibitory concentration assay, EC107. Conditions: Escherichia coli, ATCC25922; E. coli ATCC 25922, wt; read-out: MICs EC107. An outline of the steps: as §1
Assay [12] concerns A. baumanii ATCC 19606 (AB110). The assay can be described thus: Minimum inhibitory concentration assay, AB110. The settings on record: Acinetobacter baumannii, ATCC19606; A. baumanii ATCC 19606, wt; read-out: MICs AB110. In outline:
as §1

Assay [13] has as its system P. aeruginosa ATCC 27853 (PA111). The assay can be described thus: Minimum inhibitory concentration assay, PA111. The settings on record: Pseudomonas aeruginosa, ATCC27853; P. aeruginosa ATCC 27853, wt; read-out: MICs PA111. An outline of the steps: as §1
Assay [14] relates to E. cloacae ATCC 13047 (EC108). Briefly: Minimum inhibitory concentration assay, EC108. Conditions: Enterobacter cloacae, ATCC13047; E. cloacae ATCC 13047, wt; read-out: MICs EC108. In outline: as §1
Assay [15] has as its system K. pneumoniae ATCC 13883 (KP109). Briefly: Minimum inhibitory concentration assay, KP109. The settings on record: Klebsiella pneumoniae, ATCC13883; K. pneumoniae ATCC 13883, wt; read-out: MICs KP109. An outline of the steps:
as §1

Values after ≈ are worked out from the molar mass of the structure shown.

Regarding `CN(C)CC(=O)Nc1cc(F)c2c(c1O)C(=O)C1=C(O)[C@]3(O)C(=O)C(C(N)=O)=C(O)[C@@H](N(C)C)[C@@H]3C[C@@H]1C2` [Compound 23], the MIC in [1] is not above 0.0156 µg/mL; in assay [2], 0.5 µg/mL (≈ 0.939 µM); in assay [3], 0.125 µg/mL (≈ 0.235 µM); in [4], 8 µg/mL (≈ 15 µM); in assay [5] it was 8 µg/mL (≈ 15 µM); in assay [6], 0.25 µg/mL (≈ 0.469 µM). Also, the MIC is not above 0.0156 µg/mL in assay [7]; 0.0313 µg/mL (≈ 0.0588 µM) in [8]; not above 0.0156 µg/mL in assay [9]; not above 0.0156 µg/mL in assay [10]; 0.125 µg/mL (≈ 0.235 µM) in [11]; 0.125 µg/mL (≈ 0.235 µM) in [12]. Moreover, the MIC in [13] stood at 8 µg/mL (≈ 15 µM); in [14], 1 µg/mL (≈ 1.88 µM); in [15], 0.5 µg/mL (≈ 0.939 µM).
`CN(CC(=O)Nc1cc(F)c2c(c1O)C(=O)C1=C(O)[C@]3(O)C(=O)C(C(N)=O)=C(O)[C@@H](N(C)C)[C@@H]3C[C@@H]1C2)C1CCCC1` [Compound 31]: the MIC in assay [1] was 1 µg/mL (≈ 1.7 µM); in assay [2], 2 µg/mL (≈ 3.41 µM); in assay [3], 2 µg/mL (≈ 3.41 µM); in assay [4] it was 8 µg/mL (≈ 13.6 µM); in assay [5] it was 8 µg/mL (≈ 13.6 µM); in [6] it was 1 µg/mL (≈ 1.7 µM). The MIC in assay [7] was found to be 0.5 µg/mL (≈ 0.852 µM); in assay [8] it was 1 µg/mL (≈ 1.7 µM); in [9] it was 0.25 µg/mL (≈ 0.426 µM); in [10] it was 0.25 µg/mL (≈ 0.426 µM); in [11], 2 µg/mL (≈ 3.41 µM); in [12], 0.5 µg/mL (≈ 0.852 µM). Further, the MIC in assay [13] is more than 32 µg/mL; in assay [14], 8 µg/mL (≈ 13.6 µM); in [15] it was 4 µg/mL (≈ 6.82 µM).
For `CN(C)[C@@H]1C(O)=C(C(N)=O)C(=O)[C@@]2(O)C(O)=C3C(=O)c4c(O)c(NC(=O)CN5CC[C@H](O)C5)cc(F)c4C[C@H]3C[C@@H]12` [Compound 40], the MIC in assay [1] was 1 µg/mL (≈ 1.74 µM); in [2] it was 1 µg/mL (≈ 1.74 µM); in [3], 1 µg/mL (≈ 1.74 µM); in [4] it was more than 32 µg/mL; in assay [5], 32 µg/mL (≈ 55.7 µM); in [6], 16 µg/mL (≈ 27.8 µM). In addition, the MIC in assay [7] was found to be 1 µg/mL (≈ 1.74 µM); in assay [8] it was 1 µg/mL (≈ 1.74 µM); in assay [9] it was 0.0625 µg/mL (≈ 0.109 µM); in assay [10] it was 0.5 µg/mL (≈ 0.87 µM); in assay [11] it was 4 µg/mL (≈ 6.96 µM); in assay [12], 8 µg/mL (≈ 13.9 µM). Moreover, the MIC in [13] worked out at 32 µg/mL (≈ 55.7 µM); in [14], 4 µg/mL (≈ 6.96 µM); in assay [15], 8 µg/mL (≈ 13.9 µM).
As for `CC(C)CNCC(=O)Nc1cc(F)c2c(c1O)C(=O)C1=C(O)[C@]3(O)C(=O)C(C(N)=O)=C(O)[C@@H](N(C)C)[C@@H]3C[C@@H]1C2` [Compound 19], the MIC stood at 0.125 µg/mL (≈ 0.223 µM) in [1]; 0.25 µg/mL (≈ 0.446 µM) in [2]; 0.25 µg/mL (≈ 0.446 µM) in assay [3]; 4 µg/mL (≈ 7.14 µM) in assay [4]; 4 µg/mL (≈ 7.14 µM) in assay [5]; 0.25 µg/mL (≈ 0.446 µM) in [6]. Also, the MIC in [7] was not above 0.0156 µg/mL; in assay [8] it was 0.125 µg/mL (≈ 0.223 µM); in assay [9] it was not above 0.0156 µg/mL; in [10] it was not above 0.0156 µg/mL; in [11], 0.25 µg/mL (≈ 0.446 µM); in [12], 0.25 µg/mL (≈ 0.446 µM). Also, the MIC in assay [13] was found to be 16 µg/mL (≈ 28.5 µM); in [14] it was 2 µg/mL (≈ 3.57 µM); in [15], 1 µg/mL (≈ 1.78 µM).
As for `CN(C)[C@@H]1C(O)=C(C(N)=O)C(=O)[C@@]2(O)C(O)=C3C(=O)c4c(O)c(NC(=O)CN5CCCC5)cc(F)c4C[C@H]3C[C@@H]12` [Compound 34], the MIC was not above 0.0156 µg/mL in assay [1]; 0.0625 µg/mL (≈ 0.112 µM) in [2]; 0.0625 µg/mL (≈ 0.112 µM) in [3]; 2 µg/mL (≈ 3.58 µM) in assay [4]; 2 µg/mL (≈ 3.58 µM) in [5]; 0.125 µg/mL (≈ 0.224 µM) in assay [6]. Also, the MIC was not above 0.0156 µg/mL in assay [7]; not above 0.0156 µg/mL in assay [8]; not above 0.0156 µg/mL in [9]; not above 0.0156 µg/mL in [10]; 0.25 µg/mL (≈ 0.448 µM) in assay [11]; 0.125 µg/mL (≈ 0.224 µM) in assay [12]. For the same compound, the MIC was 16 µg/mL (≈ 28.6 µM) in assay [13], 1 µg/mL (≈ 1.79 µM) in assay [14] and 0.5 µg/mL (≈ 0.895 µM) in assay [15].
